These results are taken from US20220287976A1, “AMMONIA AS A PROCESSING AID FOR SPRAYED SOLID DISPERSIONS” (Capsugel Belgium NV, priority 2019, published 2022).

Molecules are shown by their SMILES. In brackets after ≈: the same amount, converted by molar mass.

Series [1] can be described thus: Crystalline solubility in methanol (saturated solution, thermogravimetric analysis of supernatant). Format: physicochemical. To be noted: organic solvent or mixture, thermodynamic from solid, no ammonia. The procedure:
A saturated solution of sulfasalazine (Spectrum Chemical) was prepared in methanol with excess crystalline sulfasalazine.
A saturated solution of piroxicam (Spectrum Chemical) was prepared in methanol with excess crystalline piroxicam.

The nature of series [2]: Concentration enhancement in methanol with ammonia. Format: physicochemical. To be noted: for concentration in methanol in the presence of ammonia: methanol with about 1.07 molar equivalents of ammonia, completely dissolved; for time to dissolution after addition of ammonia: slurry in methanol, 2.14 M ammonia in methanol added with stirring; for solubility enhancement in methanol in the presence of ammonia: versus crystalline solubility in methanol without ammonia. The procedure: A second mixture of sulfasalazine in methanol was prepared by stirring 656.0 mg of sulfasalazine (1.65 mmol) in 14.00 mL of methanol. To this slurry, 0.825 mL of 2.14 M ammonia (1.76 mmol) in methanol was added with stirring resulting in complete dissolution of sulfasalazine within 1 minute.
A second mixture of piroxicam in methanol was prepared by stirring 661.8 mg of piroxicam (2.00 mmol) in 15.00 mL of methanol.

Take `O=C(O)c1cc(/N=N/c2ccc(S(=O)(=O)Nc3ccccn3)cc2)ccc1O` [sulfasalazine]: the solubility in series [1] is approximately 1000 µg/mL (≈ 2.51 mM). Moreover, in series [2], the “concentration in methanol in the presence of ammonia” value is given as “greater than 43 mg/mL”, the “time to dissolution after addition of ammonia” value is not above 1 min and the “solubility enhancement in methanol in the presence of ammonia” value is on record as “about 43 fold”.
With `CN1C(C(=O)Nc2ccccn2)=C(O)c2ccccc2S1(=O)=O` [piroxicam], the solubility in series [1] was approximately 2100 µg/mL (≈ 6.34 mM). In series [2], the “concentration in methanol in the presence of ammonia” value is on record as “greater than 41 mg/mL”, the “time to dissolution after addition of ammonia” value was not above 1 min and the “solubility enhancement in methanol in the presence of ammonia” value was “greater than 19 fold”.

By solubility is commonly meant how much of the substance goes into solution per volume.
